Measured values: US4902677A, “Treatment of heart failure of mammals with N^6 -substituted cyclic adenosine monophosphates” (Kikkoman Corporation, priority 1987, dated 1990)
Counter-ions that a name gives are not always drawn.

Key:
[1] = system: guinea pig papillary muscle; test: Contractive force of extirpated guinea pig papillary muscle preparation (Test Example 1); settings: Cavia porcellus; 10^-3 M; relative to 10^-7 M Isoproterenol (positive control) as 100%; read-out: Increase in contractive force
Procedure: Test animal: guinea-pigs Method of Experiment: extirpated guinea pig papillary muscle preparation. Male albino guinea pigs having body weights of 300 to 500 g were stunned by a blow on the head. The hearts were quickly extirpated and the papillary muscles of the right ventricle were dissected out in cold bathing solution (2° to 4° C.), and were suspended in a 10 ml organ bath for recording isometric contractions. The bathing solution was the Krebs-Henseleit solution (32°±0.5° C.) and was continuously bubbled with a mixed gas composed of 95% O2 and 5% CO2. The papillary muscle preparation were stimulated by square wave pulses of 1 msec duration at the frequency of 1 Hz and at voltages of 20% above the threshold supplied by a square-wave pulse stimulator via a pair of the silver plate electrodes in which the preparations were placed. The isometric contraction was measured by a force-displacement transducer connected to a carrier-amplifier. The test solution was prepared by dissolving the sodium salt into distilled water or dissolving the free acid into Krebs-Henseleit solution. […] The results are shown as relative values (%), taking the result given by a reaction using 10^-7 M Isoproterenol (positive control) as 100%.

[2] = Acute toxicity, intraperitoneal (Test Example 3); settings: mouse, in vivo, ip, female mice, in dimethyl sulfoxide, observed for 7 days
Procedure: Test animal: female ICR-CRJ: CD-1 mice, 5 weeks old, body weight 29 to 32 g
LD50 was calculated according to the Richfield-Wilcockson method (Pharmacological Tests, p 200-205, Nanzando, 1967).

[3] = system: heart; settings: literature; result in words; cited from earlier work
[4] = system: heart-lung preparation; test: Cardiotonic activity on heart-lung preparation, acute heart failure induced by Pentobarbital (Test Example 2); set-up: species or system dog; settings: for Change in Heart rate / Decrease in right atrium pressure / Increase in systemic output: versus nonadministration group
Procedure: Test animal: Crossbred adult dogs (female and male) Method of Experiment: cardiotonic activity on heart-lung preparation. Using female and male crossbred dogs having body weights of 9 to 10 kg anesthetized with Pentobarbital, heart-lung preparations were prepared in the usual way, on which systemic output, right atrium pressure and heart rate were measured. […] Regarding the control (no administration group), the results express the values after administration of Pentobarbital.

**Q.** With `CCCCCCCCCNc1ncnc2c1ncn2[C@@H]1O[C@@H]2COP(=O)(O)O[C@H]2[C@H]1O` [N^6 --Nonyl-C--AMP Na] as the compound, how does the activation at 1000 µM [1] read?
**A.** 49.5%

**Q.** What about the LD50 at 168 h [2] of the same compound?
**A.** 150 mg/kg

**Q.** Which activation at 1000 µM [1] does the source give for `CCCCNc1ncnc2c1ncn2[C@@H]1O[C@@H]2COP(=O)(O)O[C@H]2[C@H]1O` [N^6 --Butyl-C--AMP] here?
**A.** 71%

**Q.** What about the LD50 at 168 h [2] of the same compound?
**A.** 350 mg/kg

**Q.** Which myocardial contractility [3] does the source give for `CCCC(=O)Nc1ncnc2c1ncn2[C@@H]1O[C@@H]2COP(=O)(O)O[C@H]2[C@H]1OC(=O)CCC` [N^6,2'-O-dibutyryl C-AMP] here?
**A.** have a mycocardial contractile effect

**Q.** Which results are given for `O=P1(O)OC[C@H]2O[C@@H](n3cnc4c(NCc5ccco5)ncnc43)[C@H](O)[C@@H]2O1` [N^6 --Furfuryl-C--AMP Na]?
**A.** activation at 1000 µM [1]: 93.2%; LD50 at 168 h [2]: 483 mg/kg

**Q.** Which activation at 1000 µM [1] does the source give for `CCCCCNc1ncnc2c1ncn2[C@@H]1O[C@@H]2COP(=O)(O)O[C@H]2[C@H]1O` [N^6 --Pentyl-C--AMP] here?
**A.** 98%

**Q.** For `O=P1(O)OC[C@H]2O[C@@H](n3cnc4c(NCc5ccccc5)ncnc43)[C@H](O)[C@@H]2O1` [N^6 --Benzyl-C--AMP Na], which activation at 1000 µM [1] is on record?
**A.** 91.7%

**Q.** What about the LD50 at 168 h [2] of the same compound?
**A.** 383 mg/kg

**Q.** With `CCCCCCCNc1ncnc2c1ncn2[C@@H]1O[C@@H]2COP(=O)(O)O[C@H]2[C@H]1O` [sodium salt of N^6-heptyl-adenosine-3',5'-cyclic phosphate] as the compound, how does the Heart rate ([4]; 10 mg) read?
**A.** 112 beats/min.

**Q.** And the Right atrium pressure ([4]; 10 mg)?
**A.** 96.9 mm H2 O

**Q.** What about the Systemic output ([4]; 10 mg) of the same compound?
**A.** 409 ml/min./100 g heart

**Q.** What about the “Change in Heart rate” value ([4]; 10 mg) of the same compound?
**A.** 2 beats/min.

**Q.** What about the “Decrease in right atrium pressure” value ([4]; 10 mg) of the same compound?
**A.** 12.1 mm H2 O

**Q.** What about the “Increase in systemic output” value ([4]; 10 mg) of the same compound?
**A.** 150 ml/min./100 g heart

**Q.** What about the Heart rate ([4]; 30 mg) of the same compound?
**A.** 120 beats/min.

**Q.** And the Right atrium pressure ([4]; 30 mg)?
**A.** 68.3 mm H2 O

**Q.** What about the Systemic output ([4]; 30 mg) of the same compound?
**A.** 610 ml/min./100 g heart

**Q.** What about the “Change in Heart rate” value ([4]; 30 mg) of the same compound?
**A.** 10 beats/min.

**Q.** And the “Decrease in right atrium pressure” value ([4]; 30 mg)?
**A.** 40.7 mm H2 O

**Q.** And the “Increase in systemic output” value ([4]; 30 mg)?
**A.** 351 ml/min./100 g heart

**Q.** With `CC(C)CNc1ncnc2c1ncn2[C@@H]1O[C@@H]2COP(=O)(O)O[C@H]2[C@H]1O` [N^6 --Isobutyl-C--AMP] as the compound, how does the activation at 1000 µM [1] read?
**A.** 24%

**Q.** With `CCCCCCCNc1ncnc2c1ncn2[C@@H]1O[C@@H]2COP(=O)(O)O[C@H]2[C@H]1O` [N^6 --Heptyl-C--AMP, N^6-heptyladenosine-3',5'-cyclic phosphate] as the compound, how does the activation at 1000 µM [1] read?
**A.** 94.1%

**Q.** What about the “acute heart failure state induced by Pentobarbital” value ([4]; 10 mg or 30 mg, result in words) of the same compound?
**A.** remarkably improved

**Q.** And the LD50 at 168 h [2]?
**A.** 174 mg/kg
